Test results: patent US7449447B2, “Peptidomimetic NS3-serine protease inhibitors of hepatitis C virus” (priority 2003, dated 2008)
*1 amine or outer side, *2 acyl side, *3 side chain or, on linkers, in order; H or OH if unused. Where a SMILES comes first, the peptide text is derived from it. [ ]: non-standard residue; d: D form. The star is where a group is joined. Pro(3R,4S-CMe2) = CC1(C)[C@@H]2[C@@H](C(=O)O)NC[C@@H]21; Abu(4,4-F2) = N[C@@H](CC(F)F)C(=O)O; Phg = N[C@H](C(=O)O)c1ccccc1; Tle = CC(C)(C)[C@H](N)C(=O)O; CO = O=C([*:1])[*:2]; NHtBu = CC(C)(C)N*

Biological target: T1, HCV NS3/NS4a serine protease (Hepatitis C virus genotype 1b, UniProt P26663)
T1 construct: amino terminus of the NS3 protease domain (amino acids 3-181) with a tetrapeptide linker; made in house; host or cells: E. coli
T1 sequence (P26663 1013-1207, looked up, natural form): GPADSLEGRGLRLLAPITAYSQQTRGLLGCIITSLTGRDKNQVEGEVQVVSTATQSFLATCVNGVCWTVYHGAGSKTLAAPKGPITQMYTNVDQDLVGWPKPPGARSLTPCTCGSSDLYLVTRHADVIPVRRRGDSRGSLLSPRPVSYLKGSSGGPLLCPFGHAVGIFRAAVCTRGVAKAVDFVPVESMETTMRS
Experiment: Spectrophotometric assay for HCV protease inhibitory activity (chromogenic ester substrates)
Type: biochemical, hepatitis C virus (strain 1b)
Details: Ki Rating, Table 2; single chain NS4A21-32-GSGS-NS3 3-181 protease, 30° C., pH 6.5
Procedure: Spectrophotometric Assay: Spectrophotometric assays for the HCV serine protease were performed on the inventive compounds by following the procedure described by R. Zhang et al., Analytical Biochemistry, 270 (1999) 268-275, the disclosure of which is incorporated herein by reference. The assay based on the proteolysis of chromogenic ester substrates is suitable for the continuous monitoring of HCV NS3 protease activity.
HCV NS3 protease (strain 1b) and its NS4A cofactor were constructed as a recombinant single chain protein. The NS4A cofactor domain (amino acid residues 21-32) was fused in frame to the amino terminus of the NS3 protease domain (amino acids 3-181) with a tetrapeptide linker. This NS4A 21-32-GSGS-NS33-181 construct was then expressed in E. coli and purified to >90% homogeneity. Kinetic parameters were determined and found to be the same as that of the full length NS31-631/NS4A1-54 protein complex produced in the baculovirus system (D. L. Sali et al, Biochemistry, 37 (1998) 3392-340). The details of the cloning, expression, purification and kinetic analysis of the of the single chain recombinant protease have been previously described (S. S. Taremi, et al. Protein Science. 7 (1998) 2143-2149.
Protein concentrations were determined by the Biorad dye method using recombinant HCV protease standards previously quantified by amino acid analysis. Prior to assay initiation, the enzyme storage buffer (50 mM sodium phosphate pH 8.0, 300 mM NaCl, 10% glycerol, 0.05% lauryl maltoside and 10 mM DTT) was exchanged for the assay buffer (25 mM MOPS pH 6.5, 300 mM NaCl, 10% glycerol, 0.05% lauryl maltoside, 5 μM EDTA and 5 μM DTT) utilizing a Biorad Bio-Spin P-6 prepacked column.
Protease Assay: HCV protease assays were performed at 30° C. using a 200 μl reaction mix in a 96-well microtiter plate. Assay buffer conditions (25 mM MOPS pH 6.5, 300 mM NaCl, 10% glycerol, 0.05% lauryl maltoside, 5 μM EDTA and 5 μM DTT) were optimized for the NS3/NS4A heterodimer (D. L. Sali et al, ibid.)). Typically, 100 μl mixtures of buffer, substrate and inhibitor were placed in wells and allowed to preincubate at 30° C. for approximately 3 minutes. One hundred μls of pre-warmed protease (30° C.) in assay buffer, was then used to initiate the reaction to produce a final concentration of 1.3 nM HCV). The Substrate cleavage by the protease was monitored over 60 minutes by measuring the release of the phenylazophenol (PAP) product at an absorbance of 370 nm with a continuous read every 30 seconds using a SpectraMax Plus microtiter plate reader (Molecular Devices, Sunnyvale, Calif.). Background hydrolysis of the substrate was subtracted. Inhibitors were tested over a range of concentrations (final DMSO concentration 4%)
Evaluation of Inhibitors The inhibition constants (Ki) for the competitive inhibitors were determined experimentally at fixed concentrations of enzyme and substrate by plotting vo/vi vs. inhibitor concentration ([I]o) according to the rearranged Michaelis-Menten equation for competitive inhibition kinetics: vo/vi=1+[I]o/(Ki(1+[S]o/Km)), where vo is the uninhibited initial velocity, vi is the initial velocity in the presence of inhibitor at any given inhibitor concentration ([I]o) and [S]o is the substrate concentration used. The resulting data were fitted using linear regression and the resulting slope, 1/(Ki(1+[S]o/Km), was used to calculate the Ki value.

Q: How did the Ki turn out when CC(C)[C@H](NC(=O)N[C@H](C(=O)N1C[C@H]2[C@@H]([C@H]1C(=O)N[C@@H](CC(F)F)C(N)=O)C2(C)C)C(C)(C)C)C(=O)OC(C)(C)C [Example 164] was run?
A: > 500 nM

Q: With CC(C)[C@H](NC(=O)N[C@H](C(=O)N1C[C@H]2[C@@H]([C@H]1C(=O)N[C@@H](CC(F)F)C(N)=O)C2(C)C)C(C)(C)C)C(=O)O [Example 157] as the molecule, how does the Ki read?
A: > 500 nM

Q: For CC1(NC(=O)N[C@H](C(=O)N2C[C@H]3[C@@H]([C@H]2C(=O)N[C@@H](CC(F)F)C(=O)NCCC(=O)OC(C)(C)C)C3(C)C)C(C)(C)C)CCCCC1 [Example 155], which Ki is on record?
A: > 500 nM

Q: With COC(=O)c1ccc(CCNC(=O)C(CC(F)F)NC(=O)[C@@H]2[C@@H]3[C@H](CN2C(=O)[C@@H](NC(=O)N[C@H](C(=O)OC(C)(C)C)C(C)C)C(C)(C)C)C3(C)C)cc1 (stereo partly shown) [Example 149] as the molecule, how does the Ki read?
A: > 500 nM

Q: CC(C)[C@H](NC(=O)N[C@H](C(=O)N1C[C@H]2[C@@H]([C@H]1C(=O)NC(CC(F)F)C(=O)NCCc1ccccc1)C2(C)C)C(C)(C)C)C(=O)O (stereo partly shown) [Example 136] was tested. Which Ki did it give?
A: 100 to 500 nM

Q: CN(C)C(=O)[C@@H](NC(=O)CNC(=O)[C@H](CC(F)F)NC(=O)[C@@H]1[C@@H]2[C@H](CN1C(=O)[C@@H](NC(=O)NC(C)(C)C)C(C)(C)C)C2(C)C)c1ccccc1 [Example 166] ({NHtBu-CO}-[Tle][Pro(3R,4S-CMe2)][Abu(4,4-F2)]G[Phg]-NMe2) was tested. Which Ki did it give?
A: > 500 nM

Q: How did the Ki turn out when COC(=O)c1ccc(CCNC(=O)[C@H](CC(F)F)NC(=O)[C@@H]2[C@@H]3[C@H](CN2C(=O)[C@@H](NC(=O)N[C@H](CNS(=O)(=O)c2ccccc2)C(C)C)C(C)(C)C)C3(C)C)cc1 [Example 130] was run?
A: 100 to 500 nM

Q: How did the Ki turn out when COC(=O)c1ccc(CCNC(=O)[C@H](CC(F)F)NC(=O)[C@@H]2[C@@H]3[C@H](CN2C(=O)[C@@H](NC(=O)N[C@H](C(=O)c2ccccc2)C(C)C)C(C)(C)C)C3(C)C)cc1 [Example 134] was run?
A: 100 to 500 nM

Q: How did the Ki turn out when COC(=O)c1ccc(CCNC(=O)[C@H](CC(F)F)NC(=O)[C@@H]2[C@@H]3[C@H](CN2C(=O)[C@@H](NC(=O)N[C@H](C(=O)OCC2CC2)C(C)(C)C)C(C)(C)C)C3(C)C)cc1 [Example 143] was run?
A: 100 to 500 nM

Q: For CC(C)[C@H](NC(=O)N[C@H](C(=O)N1C[C@H]2[C@@H]([C@H]1C(=O)N[C@@H](CC(F)F)C(=O)NCCc1ccc(C(=O)N(C)C)cc1)C2(C)C)C(C)(C)C)C(=O)O [Example 131], which Ki is on record?
A: 100 to 500 nM

Same assay, conditions: Ki, Table 1; single chain NS4A21-32-GSGS-NS3 3-181 protease, 30° C., pH 6.5

Q: For CN(C[C@@H](NC(=O)N[C@H](C(=O)N1C[C@H]2[C@@H](C1C(=O)NC(CC(F)F)C(=O)NCCc1ccc(C(=O)O)cc1)C2(C)C)C(C)(C)C)C(C)(C)C)S(C)(=O)=O (stereo partly shown) [Example 104], which Ki is on record?
A: 24 nM

Q: With CC(C)(C)[C@H](NC(=O)NC1(CS(C)(=O)=O)CCCCC1)C(=O)N1C[C@H]2[C@@H](C1C(=O)N[C@@H](CC(F)F)C(=O)NCCc1ccc(C(=O)O)cc1)C2(C)C (stereo partly shown) [Example 107] as the molecule, how does the Ki read?
A: 29 nM

Same assay, conditions: Ki, Table 3; rating; single chain NS4A21-32-GSGS-NS3 3-181 protease, 30° C., pH 6.5

Q: How did the Ki turn out when CN(C[C@@H](NC(=O)N[C@H](C(=O)N1C[C@H]2[C@@H]([C@H]1C(=O)N[C@@H](CC(F)F)C(=O)NC1CCCc3ccccc31)C2(C)C)C(C)(C)C)C(C)(C)C)S(C)(=O)=O (stereo partly shown) [Example 224] was run?
A: > 500 nM

Q: Cc1ccccc1CCNC(=O)[C@H](CC(F)F)NC(=O)[C@@H]1[C@@H]2[C@H](CN1C(=O)[C@@H](NC(=O)N[C@H](CN(C)S(C)(=O)=O)C(C)(C)C)C(C)(C)C)C2(C)C [Example 259] was tested. Which Ki did it give?
A: < 100 nM

Q: With COc1ccc(CCNC(=O)[C@H](CC(F)F)NC(=O)[C@@H]2[C@@H]3[C@H](CN2C(=O)[C@@H](NC(=O)N[C@H](CN(C)S(C)(=O)=O)C(C)(C)C)C(C)(C)C)C3(C)C)cc1Br [Example 292] as the molecule, how does the Ki read?
A: < 100 nM

Q: How did the Ki turn out when COc1cc(CCNC(=O)[C@H](CC(F)F)NC(=O)[C@@H]2[C@@H]3[C@H](CN2C(=O)[C@@H](NC(=O)N[C@H](CN(C)S(C)(=O)=O)C(C)(C)C)C(C)(C)C)C3(C)C)ccc1O [Example 294] was run?
A: < 100 nM

Q: CN(C[C@@H](NC(=O)N[C@H](C(=O)N1C[C@H]2[C@@H]([C@H]1C(=O)N[C@@H](CC(F)F)C(=O)N[C@H]1C[C@H]1c1ccccc1)C2(C)C)C(C)(C)C)C(C)(C)C)S(C)(=O)=O [Example 307] was tested. Which Ki did it give?
A: < 100 nM

Q: How did the Ki turn out when COc1cc(CCNC(=O)[C@H](CC(F)F)NC(=O)[C@@H]2[C@@H]3[C@H](CN2C(=O)[C@@H](NC(=O)N[C@H](CN(C)S(C)(=O)=O)C(C)(C)C)C(C)(C)C)C3(C)C)cc(OC)c1 [Example 278] was run?
A: 100 to 500 nM

Q: Which Ki does the source give for CN(C[C@@H](NC(=O)N[C@H](C(=O)N1C[C@H]2[C@@H]([C@H]1C(=O)N[C@@H](CC(F)F)C(=O)NCCc1c(F)cccc1F)C2(C)C)C(C)(C)C)C(C)(C)C)S(C)(=O)=O [Example 306] here?
A: < 100 nM

Q: CN(C[C@@H](NC(=O)N[C@H](C(=O)N1C[C@H]2[C@@H]([C@H]1C(=O)N[C@@H](CC(F)F)C(=O)NCCc1ccc(C(C)(C)C)cc1)C2(C)C)C(C)(C)C)C(C)(C)C)S(C)(=O)=O [Example 276] was tested. Which Ki did it give?
A: < 100 nM

Q: Which Ki does the source give for CC(CCc1ccccc1)NC(=O)[C@H](CC(F)F)NC(=O)[C@@H]1[C@@H]2[C@H](CN1C(=O)[C@@H](NC(=O)N[C@H](CN(C)S(C)(=O)=O)C(C)(C)C)C(C)(C)C)C2(C)C (stereo partly shown) [Example 225] here?
A: > 500 nM

Q: Which Ki does the source give for CC(O)CNC(=O)[C@H](CC(F)F)NC(=O)[C@@H]1[C@@H]2[C@H](CN1C(=O)[C@@H](NC(=O)N[C@H](CN(C)S(C)(=O)=O)C(C)(C)C)C(C)(C)C)C2(C)C (stereo partly shown) [Example 231] here?
A: > 500 nM

Q: Which Ki does the source give for CN(C[C@@H](NC(=O)N[C@H](C(=O)N1C[C@H]2[C@@H]([C@H]1C(=O)N[C@@H](CC(F)F)C(=O)NCCc1ccc(Cl)cc1)C2(C)C)C(C)(C)C)C(C)(C)C)S(C)(=O)=O [Example 250] here?
A: < 100 nM

Q: For CN(C[C@@H](NC(=O)N[C@H](C(=O)N1C[C@H]2[C@@H]([C@H]1C(=O)N[C@@H](CC(F)F)C(=O)NCCc1c[nH]c3ccccc13)C2(C)C)C(C)(C)C)C(C)(C)C)S(C)(=O)=O [Example 252], which Ki is on record?
A: < 100 nM

Q: For CN(C[C@@H](NC(=O)N[C@H](C(=O)N1C[C@H]2[C@@H]([C@H]1C(=O)N[C@@H](CC(F)F)C(=O)NCC1CC1)C2(C)C)C(C)(C)C)C(C)(C)C)S(C)(=O)=O [Example 205], which Ki is on record?
A: > 500 nM

Q: How did the Ki turn out when CN(C[C@@H](NC(=O)N[C@H](C(=O)N1C[C@H]2[C@@H]([C@H]1C(=O)N[C@@H](CC(F)F)C(=O)NCCc1ccc(-c3ccccc3)cc1)C2(C)C)C(C)(C)C)C(C)(C)C)S(C)(=O)=O [Example 288] was run?
A: < 100 nM

Q: CN(C[C@@H](NC(=O)N[C@H](C(=O)N1C[C@H]2[C@@H]([C@H]1C(=O)N[C@@H](CC(F)F)C(=O)NC1CCN(Cc3ccccc3)CC1)C2(C)C)C(C)(C)C)C(C)(C)C)S(C)(=O)=O [Example 243] was tested. Which Ki did it give?
A: > 500 nM

Q: How did the Ki turn out when CCN(Cc1ccncc1)C(=O)[C@H](CC(F)F)NC(=O)[C@@H]1[C@@H]2[C@H](CN1C(=O)[C@@H](NC(=O)N[C@H](CN(C)S(C)(=O)=O)C(C)(C)C)C(C)(C)C)C2(C)C [Example 304] was run?
A: > 500 nM

Q: For CC(C)CNC(=O)[C@H](CC(F)F)NC(=O)[C@@H]1[C@@H]2[C@H](CN1C(=O)[C@@H](NC(=O)N[C@H](CN(C)S(C)(=O)=O)C(C)(C)C)C(C)(C)C)C2(C)C [Example 206], which Ki is on record?
A: > 500 nM

Q: CN(C[C@@H](NC(=O)N[C@H](C(=O)N1C[C@H]2[C@@H]([C@H]1C(=O)N[C@@H](CC(F)F)C(=O)NCC(O)c1ccccc1)C2(C)C)C(C)(C)C)C(C)(C)C)S(C)(=O)=O (stereo partly shown) [Example 246] was tested. Which Ki did it give?
A: 100 to 500 nM

Q: With CCOc1cc(CCNC(=O)[C@H](CC(F)F)NC(=O)[C@@H]2[C@@H]3[C@H](CN2C(=O)[C@@H](NC(=O)N[C@H](CN(C)S(C)(=O)=O)C(C)(C)C)C(C)(C)C)C3(C)C)ccc1OC [Example 286] as the molecule, how does the Ki read?
A: < 100 nM
